From PubChem BioAssay AID624491 (Broad Institute, 2012)
The source made the active and inactive calls.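 Rule for the calls: active = fitted curve crossing a set activation limit at or below the highest valid dose tested; inconclusive = flat fit at 30 to 70% activation, or poor fit; inactive = the rest, including signal decreases.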

Each molecule was assayed on D54 ERlucT glycosylation luciferase reporter, luminescence, 24 h (assay: blockers of NLG process in reporter cells – D54 ERlucT cells, luminescence, cherry-picks, dose response (AID 624491);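 note: signal gain reflects blocked N-linked glycosylation of a luciferase reporter; actives raise luciferase signal so AC26 marks activators of the reporter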).

Row | Compound | AC26
1 | CC(C)(C)S(=O)(=O)N1C[C@H]2CC/C=C\C/C(c3ccccc3)=C\2[C@@H]1CCO | 1030 nM
2 | COc1ccc2c(c1)[C@H]1[C@H](CO2)[C@H](c2ccccc2)[C@]2(C)C(=O)Nc3ccccc3C(=O)N12 | 278 nM
3 | O=C(N/N=C/c1ccccc1)c1sccc1OCc1ccc(F)cc1 | 2600 nM
4 | O=C(N/N=C/c1ccc(Cl)cc1)c1sccc1OCc1ccc(F)cc1 | 83.6 nM
5 | Cn1cc(/C=N/n2cnc3scc(-c4ccc(Cl)cc4)c3c2=O)c2ccccc21 | 58.4 nM
6 | C=CCOc1ccc(C(=O)Nc2ccccc2C(=O)NCc2cccnc2)cc1 | 2160 nM
7 | CCCCN(CC)CCCNC(=O)c1cc2c(=O)n(C)c3ccccc3c2n1C | 3310 nM
8 | CC(C)COc1ccc(C(=O)OCC(=O)NCc2cccs2)cc1 | 1750 nM
9 | COc1ccc(NC(=O)C2Cc3c(-c4cccc(NC(C)=O)c4)ccnc3O2)cc1OC (stereo unspecified) | 2270 nM
10 | O=c1[nH]c(=O)n(C2CC(O)C(CO)O2)cc1Br (stereo unspecified) | 1490 nM
11 | Cc1ccc(S(=O)(=O)NC2=C(N3CCN(Cc4ccccc4)CC3)C(=O)c3ccccc3C2=O)cc1 | 3810 nM
12 | COc1cc(Nc2c3c(nc4ccccc24)CCCC3)cc(OC)c1OC | 581 nM
13 | CCOC(=O)N1CCN(C(=O)c2cc(-c3ccncc3)nc3ccccc23)CC1 | 1410 nM
14 | CCOC(=O)c1[nH]c(C)c(C(=O)Nc2ccc(C)cc2C)c1C | 494 nM
15 | CCn1c2ccccc2c2cc(NC(=O)COC(=O)c3ccc(O)cc3)ccc21 | 5820 nM
16 | CCN1C(=O)CCN(C2CCCC2)c2nc(Nc3ccc(C(=O)NC4CCN(C)CC4)cc3OC)ncc21 | 479 nM
17 | O=c1cc(-c2ccccc2)[nH]c2ccc(F)cc12 | 198 nM
18 | Cc1ccc2nc(-c3ccccc3)cc(C(=O)N3CC(C)OC(C)C3)c2c1 (stereo unspecified) | 2450 nM
19 | Cc1cc2[nH]c3ccccc3c2c(C)n1 | 3670 nM
20 | Cn1c(=O)cc(OCCCC(=O)NC2CCCC2)c2ccccc21 | 2400 nM
21 | Brc1ccc(C2=Nn3c(nnc3-c3n[nH]c4c3CCC4)SC2)cc1 | 407 nM
22 | CC(C)Sc1ccccc1C(=O)Nc1ccc2c(c1)n(C)c(=O)n2C | 4830 nM

Row | Compound | AC26
23 | COc1ccc(S(=O)Cc2ccc(C(=O)N3CCN(c4cccc(C)c4C)CC3)o2)cc1 (stereo unspecified) | 1430 nM
24 | CC(=O)Nc1cccc(-c2ccnc3c2CC(C)(C(=O)NCc2cccs2)O3)c1 (stereo unspecified) | 1450 nM
25 | CCN(CC)CCNc1ccc(CO)c2oc3ccccc3c(=O)c12 | 1280 nM
26 | CC(C)c1c(C(=O)Nc2ccccc2)c(-c2ccccc2)c(-c2ccc(F)cc2)n1CC[C@@H](O)C[C@@H](O)CC(=O)O | 68.2 nM
27 | CC(=O)c1ccc(N2CCN(C(=O)c3cccc(Oc4ccccc4)c3)CC2)cc1 | 1140 nM
28 | CCc1nc2ccc(C(=O)NCCc3c[nH]c4ccccc34)cn2c1N(C=O)CCC(C)C | 343 nM
29 | COc1ccccc1NS(=O)(=O)c1ccc(-c2cc(C)no2)s1 | 5830 nM
30 | Nc1nonc1C(=O)N/N=C/c1ccc([N+](=O)[O-])o1 | 6160 nM
31 | CCCOC(=O)c1[nH]c2c(c1C)C(=O)CC(c1cccs1)C2 (stereo unspecified) | 623 nM
32 | CCN(CC)S(=O)(=O)c1cccc(C(=O)N/N=C/c2ccc([N+](=O)[O-])o2)c1 | 2340 nM
33 | COc1ccc(CCn2c(=N)c(C(=O)NCC3CCCO3)cc3c(=O)n4cccc(C)c4nc32)cc1 (stereo unspecified) | 575 nM
34 | Cc1cc(=O)oc2cc(NC(=O)c3cccc(S(C)(=O)=O)c3)ccc12 | 2310 nM
35 | COc1ccccc1NC1=NC(c2ccc(Cl)cc2)N=C(N)N1 (stereo unspecified) | 1370 nM
36 | Cc1cccc(N2C(=O)N3[C@H](c4ccc(F)cc4)[C@@H]4C(=O)N(C5CCCCC5)C(=O)[C@@H]4[C@]3(Cc3ccccc3)C2=O)c1 | 692 nM
37 | Cn1cnc([N+](=O)[O-])c1S(=O)(=O)Oc1ccccc1 | 1420 nM
38 | COc1ccc(/C=N/NC(=O)c2ccccc2OCc2ccccc2)c(OC)c1 | 1400 nM
39 | C=CCn1c(SCc2c(C)noc2C)nc2ccccc2c1=O | 163 nM
40 | CC(C)(C)c1ccc(C(=O)O/N=C(\N)Cc2cccs2)cc1 | 11800 nM
41 | Cc1ccc(N=Nc2c(N)nn(-c3ccccc3)c2N)cc1 | 602 nM
42 | COc1ccc(C(=O)NCc2nnc(SCC(=O)NO)n2Cc2ccccc2)cc1 | 4440 nM
43 | CC(CCc1ccccc1)NC(=O)c1ccc(NC(=O)c2ccccc2)cc1 (stereo unspecified) | 4540 nM
44 | CCNc1ccc(Br)cc(C(=O)/C=C/c2ccc(Cl)cc2)c1=O | 6710 nM

Row | Compound | AC26
45 | Cc1ccc2c(c1)c1ccc3c(c1n2C)C(=O)C=CC3=O | 948 nM
46 | COc1ccc(NC2=C(C)C(=O)CC2)cc1 | 2940 nM
47 | CC(=O)N1N=C(c2ccc(NS(=O)(=O)c3ccccc3)cc2)CC1c1ccco1 (stereo unspecified) | 912 nM
48 | COc1cc(/C=N/NC(=O)c2ccc(-c3ccccc3)cc2)cc(OC)c1OC | 1350 nM
49 | CCCOc1ccc2ccccc2c1/C=N/n1c(C)nnc1-n1nc(C)cc1C | 503 nM
50 | COc1ccc(Nc2nc(-c3sc(C)nc3C)cs2)c(OC)c1 | 1240 nM
51 | COc1cccc2nc3c(C(=O)NCCN(C)C)cccc3cc12 | 164 nM
52 | COc1ccc2c(c1)C(=O)N1[C@H]3c4cc(C)ccc4OC[C@@H]3[C@H](c3ccccc3)[C@]1(C)C(=O)N2 | 358 nM
53 | CNC(=O)c1cccc(NC(=O)c2ccccc2OCc2ccccc2)c1 | 355 nM
54 | Oc1ccc(Nc2nc(N3CCCC3)c3ccccc3n2)cc1 | 335 nM
55 | COc1ccc(CCNc2c3ccccc3nc3ccccc23)cc1OC | 1040 nM
56 | Cc1ccc(CCC(=O)Nc2ncc(Cc3cc(Cl)ccc3Cl)s2)o1 | 476 nM
57 | Cc1ccc(C(=O)N/C(=C\c2ccco2)C(=O)NCCc2c[nH]c3ccccc23)cc1 | 2310 nM
58 | COc1ccc(S(=O)(=O)Nc2cc3c(cc2C(C)=O)OCO3)cc1 | 5560 nM
59 | Cc1cc(=O)n2c3c(c4c(cc13)c(CN(C)C)cc(=O)n4C)OC2 | 3030 nM
60 | Cc1ccc2[nH]c(=O)c3cc(C(=O)NC(C)C)sc3c2c1 | 3990 nM
61 | CN(C)CCNC(=O)c1cccc2[nH]c(-c3ccncc3)nc12 | 894 nM
62 | COc1ccc(C=CC(=O)c2c(OC)cc(OC)c(OC)c2O)cc1 | 4040 nM
63 | COc1ccc(NC(=O)C(=O)c2cn(CC(=O)N3CCCC3)c3ccccc23)cc1 | 105 nM
64 | COc1cc(-c2cc(OC)c(O)c(OC)c2)cc(OC)c1O | 3600 nM
65 | O=C(NCc1cccs1)C1Cc2c(-c3ccc(Cl)cc3)ccnc2O1 (stereo unspecified) | 1670 nM
66 | O=C1Cc2c([nH]c3ccc([N+](=O)[O-])cc23)-c2ccccc2N1 | 318 nM

Row | Compound | AC26
67 | COc1cc2c(cc1OC)C(=O)N1[C@H]3c4ccccc4OC[C@@H]3[C@H](c3ccccc3)[C@]1(C)C(=O)N2 | 42.6 nM
68 | CNc1ccc(/C=C/C(=O)c2cccc3ccccc23)cc1[N+](=O)[O-] | 2810 nM
69 | COc1ccc(CCn2c(=N)c(C(=O)NCC3CCCO3)cc3c(=O)n4cccc(C)c4nc32)cc1OC (stereo unspecified) | 652 nM
70 | COc1ccc(/C=N\NC(=O)c2ccccc2F)cc1COc1ccc(F)cc1F | 3550 nM
71 | COc1ccc(C(=O)c2ccc(N(C)C)cc2)c2ccccc12 | 2000 nM
72 | COc1cc2c(C(=O)N3CCN(c4cccc(Cl)c4)CC3)cn(C)c(=O)c2cc1OC | 3400 nM
73 | CCCCCCC(=O)N(O)C1CC(=O)N(c2ccc(C)cc2)C1=O (stereo unspecified) | 3990 nM
74 | O=C(NCCC1=CCCCC1)C1CCC(CNc2nc(=S)[nH]c3ccccc23)CC1 (stereo unspecified) | 3920 nM
75 | COc1ccc(NC(=O)C2(C)Cc3c(-c4cccc(NC(C)=O)c4)ccnc3O2)cn1 (stereo unspecified) | 10100 nM
76 | COc1ccc(C=CC(=O)c2ccc3cc(OC)c(OC)cc3c2)cc1OC | 2860 nM
77 | CCOc1ccc(C(=O)n2cc(C(=O)OC)c3ccccc32)cc1 | > 19500 nM (inactive)
78 | COc1ccc2c(c1)C(=O)N1[C@H]3c4cc(Cl)ccc4OC[C@@H]3[C@H](c3ccccc3)[C@]1(C)C(=O)N2 | 1010 nM
79 | Cc1cccc(CCNC(=O)CCCOc2cc(=O)n(C)c3ccccc23)c1 | 4450 nM
80 | Cc1ccc2c(c1)C(=O)N1[C@H]3c4cc(Br)ccc4OC[C@@H]3[C@H](c3ccccc3)[C@]1(C)C(=O)N2 | 689 nM
81 | Cc1ccc(C)c(NC(=S)NC(NC(=O)Cc2cccc3ccccc23)C(Cl)(Cl)Cl)c1 (stereo unspecified) | 1270 nM
82 | O=c1[nH]c(=O)c2nc3c4ccccc4c4ccccc4c3nc2[nH]1 | 392 nM
83 | CCOC(=O)c1ccc(/C=C2/C=C(c3ccccc3)N(c3ccc(Cl)c(C(=O)O)c3)C2=O)cc1 | 1840 nM
84 | Cc1ccc(NCCN(C)C)c2c(=O)c3cc(O)ccc3sc12 | 84.5 nM
85 | COc1ccc(N/C=C/C(=O)c2cc(OC)c(OC)c(OC)c2)cc1 | 28.7 nM
86 | c1ccc2sc(Sc3ncnc4sccc34)nc2c1 | 1480 nM
87 | CCN(CC)CCN1C(=O)c2cccc3cc(N)cc(c23)C1=O | 1140 nM
88 | O=c1cc(-c2ccc(O)cc2)oc2cc(O)c(C3OC(CO)C(O)C(O)C3O)c(O)c12 (stereo unspecified) | 690 nM

Row | Compound | AC26
89 | COc1cc(C(=O)NCC(=O)NCCN2C(=O)S/C(=C\c3ccccc3Cl)C2=O)cc(OC)c1OC | 2430 nM
90 | COc1cccc(N2[C@@H](CC(C)=O)c3ccc(/C=C/C(C)=O)cc3S2(=O)=O)c1 | 3280 nM
91 | Cn1c(SCC(=O)Nc2cccc(F)c2)nc2c([nH]c3ccccc32)c1=O | 5420 nM
92 | COc1ccc2c(c1)[C@H]1[C@H](CO2)[C@H](c2ccccc2)[C@]2(C)C(=O)Nc3cc(F)c(F)cc3C(=O)N12 | 544 nM
93 | COCCNC(=S)N1CCc2cc(OC)c(OC)cc2C1c1cccs1 (stereo unspecified) | 455 nM
94 | COc1ccc(Cl)cc1NC(=O)CN(C)CC(=O)Nc1cc(OC)c(OC)c(OC)c1 | 10200 nM
95 | COC(=O)c1ccccc1NC(=O)Cn1nnc(-c2ccc(OC)cc2)n1 | > 19500 nM (inactive)
96 | COCCOC(=O)c1[nH]c2c(c1C)C(=O)CC(c1cccs1)C2 (stereo unspecified) | 1380 nM
97 | CC1CC(C)CN(C(=O)/C=C/c2ccc([N+](=O)[O-])s2)C1 (stereo unspecified) | 8460 nM
98 | c1ccc(-c2cc(-c3nnc4n3N=C(c3ccc5ccccc5c3)CS4)[nH]n2)cc1 | 2110 nM
99 | COc1cc2cnc(-c3ccccc3)cc2cc1OC | 2360 nM
100 | COc1ccc(C(=O)NC(=C(Cl)Cl)S(=O)(=O)c2ccc(C)cc2)cc1 | 10200 nM
101 | COc1ccc(OC)c2nc3c(C(=O)NCCN(C)C)cccc3nc12 | 187 nM
102 | Cc1cc(C)c(S(=O)(=O)N(C)CC(=O)N2CCCC2)c(C)c1 | 2910 nM
103 | CC1=CC(C)[C@H](/C=N/n2c(=O)[nH]c3c([nH]c4ccc(C)cc43)c2=O)C(C)C1 (stereo partly specified) | 4040 nM
104 | Cc1ccc(C(=O)N/C(=C\c2cccs2)C(=O)NCCc2c[nH]c3ccccc23)cc1C | 4860 nM
105 | O=C(NCCCN1CCOCC1)c1cc(-c2ccccc2)on1 | 5780 nM
106 | CC(=O)c1cccc(-c2ccnc3c2CC(C(=O)NCc2ccccc2)O3)c1 (stereo unspecified) | 657 nM
